Several values for one entry are separate records, joined by “and”; a condition that tells them apart may be missing. Equal entries are not always repeated.
Test system: 677734-321-R-J1-PDC complex spheroid viability
Experiment: Anticancer human tumor 677734-321-R-J1-PDC patient-derived soft tissue sarcoma cell line growth inhibition [POLQ]
Settings: for viability, T/C: stronger effect = lower value; active means viability on the fitted dose curve at most 10% of control; inactive means the rest
Method: Multicellular complex tumor spheroid response to Polymerase (POL) inhibitors (novobiocin, ART-558, RP6685) in combination with a variety of drugs and investigational agents in selected tumor cell lines
The POL inhibitors (novobiocin, ART-558, and RP6685) were evaluated both individually and in combination with standard of care and investigational anticancer small molecules within a complex spheroid model of solid tumors. . Complex spheroids include a stromal component modeled by human endothelial cells (HUVEC) and fibroblasts modeled by human mesenchymal stem cells (MSCs). The concentration ranges selected for each drug and investigational agent were based upon clinically achievable concentrations if the clinical Cmax of the agent was known.
Compounds. The drugs and investigational agents: novobiocin (NSC847541), ART-558 (NSC835418), RP-6685 (NSC848927), peposertib (NSC802822), ceralasertib (NSC780249), elimusertib (NSC800525), camonsertib (NSC841442), AZD-1390 (NSC803789), olaparib (NSC753686), talazoparib (NSC767125), rucaparib (NSC756644), sotorasib (NSC818433), MRTX-1133 (NSC836407), SN-38 (NSC673596), topotecan (NSC609699), epotoside (NSC141540), doxorubicin (NSC123127), gemcitabine (NSC613327), 5-fluorouracil (NSC19893), paclitaxel (NSC125973), vemurafenib (NSC761431), MSA-2 (NSC828583), SN-011 (NSC837082), adavosertib (NSC754352), prexasertib (NSC758257), carboplatin (NSC241240) and oxaliplatin (NSC266046), were obtained from the National Cancer Institute (NCI) Developmental Therapeutics Program Chemical Repository (21). The FDA-approved anticancer drug set is available from the Developmental Therapeutics Program at https://dtp.cancer.gov/organization/dscb/obtaining/. […] The stock solutions were prepared in dimethyl sulfoxide (DMSO, Sigma-Aldrich, St. Louis, MO, cat. D2650), except for the platinum compounds which were prepared in saline (Quality Biological, Gaithersburg, MD, cat. 114-055-101), at 800-fold the tested concentration and stored at -70 degrees C prior to their use. All drugs and investigational agents were tested over a range starting from a high concentration at or near the clinical Cmax and decreasing in half-log increments. If the clinical Cmax for an agent had not been determined, the highest concentration tested was 10 microM, except for SN-38, which was tested at a high concentration of 1 microM.
Cell Culture. All cells were maintained in an incubator at 37 degrees C and 5% CO2 with 95% humidity. The PDC lines were cultured according to standard operating procedures established by the NCI PDMR (https://pdmr.cancer.gov). Table 3 of the manuscript, lists the cell lines along with the number of the three cell types plated to form the mct-spheroids and media for tumor cell growth. After thawing, all PDC lines, except 997537-175-T-J1-PDC and 415267-285-R-J2-PDC, were cultured in Matrigel-coated flasks prepared with a working solution of 1X Ham's F-12 nutrient mix, without supplementation (Thermo Fisher Scientific, cat. 11765054), 100 U/mL penicillin-streptomycin (Thermo Fisher Scientific, cat. 15140122), and 2.5% Matrigel (Corning Inc., Corning, NY, cat. 354248) for the first three passages. The two PDC lines 997537-175-T-J1-PDC and 415267-285-R-J2-PDC were cultured on uncoated flasks. The 857933-349-R-J2-PDC line was cultured in 6C/Colon 1B media containing advanced DMEM/F-12 (Thermo Fisher Scientific, cat. 12634028), 10 mM HEPES (Thermo Fisher Scientific, cat. 15630080), 1X GlutaMAX supplement (Thermo Fisher Scientific, cat. 35050061), 0.1 mg/mL primocin (InvivoGen, San Diego, CA, cat. ant-pm-2), 10% defined fetal bovine serum, heat inactivated (HyClone Laboratories Inc., Logan, UT, cat. SH30070.03HI), 50% L-WRN conditioned media (ATCC, cat. CRL-3276), 1.25 mM N-Acetyl-L-cysteine (Sigma-Aldrich, cat. A9165), 10 mM nicotinamide (Sigma-Aldrich, cat. N0636), 1X B-27 supplement (Thermo Fisher Scientific, cat. 17504044), 1X N-2 supplement (Thermo Fisher Scientific, cat. […]

[1] = curve of first compound, second compound 0.0316 µM
[2] = curve of first compound, second compound 0.1 µM
[3] = curve of first compound, second compound 0.316 µM
[4] = curve of first compound, second compound 1 µM
[5] = curve of first compound, second compound 3.16 µM
[6] = curve of first compound, second compound 10 µM
[7] = second compound 0.0316 µM, first compound 0.0316 µM
[8] = second compound 0.0316 µM, first compound 0.1 µM
[9] = second compound 0.0316 µM, first compound 0.316 µM
[10] = second compound 0.0316 µM, first compound 1 µM
[11] = second compound 0.0316 µM, first compound 3.16 µM
[12] = second compound 0.0316 µM, first compound 10 µM
[13] = second compound 0.1 µM, first compound 0.0316 µM
[14] = second compound 0.1 µM, first compound 0.1 µM
[15] = second compound 0.1 µM, first compound 0.316 µM
[16] = second compound 0.1 µM, first compound 1 µM
[17] = second compound 0.1 µM, first compound 3.16 µM
[18] = second compound 0.1 µM, first compound 10 µM
[19] = second compound 0.316 µM, first compound 0.0316 µM
[20] = second compound 0.316 µM, first compound 0.1 µM
[21] = second compound 0.316 µM, first compound 0.316 µM
[22] = second compound 0.316 µM, first compound 1 µM
[23] = second compound 0.316 µM, first compound 3.16 µM
[24] = second compound 0.316 µM, first compound 10 µM
[25] = second compound 1 µM, first compound 0.0316 µM
[26] = second compound 1 µM, first compound 0.1 µM
[27] = second compound 1 µM, first compound 0.316 µM
[28] = second compound 1 µM, first compound 1 µM
[29] = second compound 1 µM, first compound 3.16 µM
[30] = second compound 1 µM, first compound 10 µM
[31] = second compound 3.16 µM, first compound 0.0316 µM
[32] = second compound 3.16 µM, first compound 0.1 µM
[33] = second compound 3.16 µM, first compound 0.316 µM
[34] = second compound 3.16 µM, first compound 1 µM
[35] = second compound 3.16 µM, first compound 3.16 µM
[36] = second compound 3.16 µM, first compound 10 µM
[37] = second compound 10 µM, first compound 0.0316 µM
[38] = second compound 10 µM, first compound 0.1 µM
[39] = second compound 10 µM, first compound 0.316 µM
[40] = second compound 10 µM, first compound 1 µM
[41] = second compound 10 µM, first compound 3.16 µM
[42] = second compound 10 µM, first compound 10 µM
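Further: spheroids exposed to compounds for one week.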
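Wherever viability, T/C is given: 100% = vehicle DMSO treated spheroids.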

CCc1cc2c(N3CCc4c(cc(Cn5ccnc5)cc4-c4cn(C)nc4C(F)(F)F)C3=O)ccnc2c(OC)n1 + Cc1cccc(N(C)C(=O)C2C(O)CCN2c2nc(C)cc(C(F)(F)F)c2C#N)c1
inactive: viability, T/C [7] 104% | viability, T/C [8] 94.4% | viability, T/C [9] 86.5% | viability, T/C [10] 96.9% | viability, T/C [11] 60.5% | viability, T/C [12] 58.8% | viability, T/C [13] 113% | viability, T/C [14] 104% | viability, T/C [15] 99.4% | viability, T/C [16] 84% | viability, T/C [17] 59.7% | viability, T/C [18] 49.7% | viability, T/C [19] 100% | viability, T/C [20] 110% | viability, T/C [21] 92.3% | viability, T/C [22] 85.8% | viability, T/C [23] 59.8% | viability, T/C [24] 36.5% | viability, T/C [25] 94.7% | viability, T/C [26] 79% | viability, T/C [27] 100% | viability, T/C [28] 77.8% | viability, T/C [29] 75.1% | viability, T/C [30] 40.2% | viability, T/C [31] 110% | viability, T/C [32] 79.9% | viability, T/C [33] 93.2% | viability, T/C [34] 76.1% | viability, T/C [35] 64.6% | viability, T/C [36] 31.6% | viability, T/C [37] 87.9% | viability, T/C [38] 67.9% | viability, T/C [39] 60.5% | viability, T/C [40] 65.8% | viability, T/C [41] 46.3% | viability, T/C [42] 30.5%
> 10 µM: IC50 [1]
7.18 µM: IC50 [4]
5.19 µM: IC50 [3]
1.98 µM: IC50 [6]
9.08 µM: IC50 [2]
4.89 µM: IC50 [5]

COc1cc2cc(C(=O)CCC(=O)O)sc2cc1OC
inactive: viability, T/C (compound 0.0316 µM) 100% and 108% and 101% | viability, T/C (compound 0.1 µM) 94.4% and 93.7% and 102% | viability, T/C (compound 0.316 µM) 82% and 105% and 114% | viability, T/C (compound 1 µM) 95.8% and 98.6% and 106% | viability, T/C (compound 3.16 µM) 97.5% and 107% and 106% | viability, T/C (compound 10 µM) 105% and 99.9% and 113%
> 10 µM: IC50 (curve of compound)

CC1COCCN1c1cc(C2(S(C)(=N)=O)CC2)nc(-c2ccnc3[nH]ccc23)n1 (stereo not drawn) + COC1C(OC(N)=O)C(O)C(Oc2ccc3c(O)c(NC(=O)c4ccc(O)c(CC=C(C)C)c4)c(=O)oc3c2C)OC1(C)C
3.85 µM: IC50 [5] | IC50 [6]
3.12 µM: IC50 [3]
4.24 µM: IC50 [2]
inactive: viability, T/C [7] 109% | viability, T/C [8] 117% | viability, T/C [9] 95.5% | viability, T/C [10] 101% | viability, T/C [11] 62.4% | viability, T/C [12] 39.5% | viability, T/C [13] 110% | viability, T/C [14] 113% | viability, T/C [15] 106% | viability, T/C [16] 93% | viability, T/C [17] 58.7% | viability, T/C [18] 24.3% | viability, T/C [19] 109% | viability, T/C [20] 104% | viability, T/C [21] 104% | viability, T/C [22] 91.1% | viability, T/C [23] 49.5% | viability, T/C [24] 18.5% | viability, T/C [25] 112% | viability, T/C [26] 98.7% | viability, T/C [27] 100% | viability, T/C [28] 92.2% | viability, T/C [29] 62.3% | viability, T/C [30] 24.3% | viability, T/C [31] 109% | viability, T/C [32] 104% | viability, T/C [33] 99.6% | viability, T/C [34] 98.8% | viability, T/C [35] 55.5% | viability, T/C [36] 22.9% | viability, T/C [37] 108% | viability, T/C [38] 107% | viability, T/C [39] 106% | viability, T/C [40] 92% | viability, T/C [41] 56% | viability, T/C [42] 21.6%
4.67 µM: IC50 [4]
5.96 µM: IC50 [1]

CCc1cc2c(N3CCc4c(cc(Cn5ccnc5)cc4-c4cn(C)nc4C(F)(F)F)C3=O)cc(C)nc2c(OC)n1 + Cc1cccc(N(C)C(=O)C2C(O)CCN2c2nc(C)cc(C(F)(F)F)c2C#N)c1
2.27 µM: IC50 [6]
inactive: viability, T/C [7] 104% | viability, T/C [8] 116% | viability, T/C [9] 84% | viability, T/C [10] 94% | viability, T/C [11] 65.5% | viability, T/C [12] 39.3% | viability, T/C [13] 97.3% | viability, T/C [14] 94.7% | viability, T/C [15] 99.7% | viability, T/C [16] 75.6% | viability, T/C [17] 66.3% | viability, T/C [18] 33.1% | viability, T/C [19] 92.4% | viability, T/C [20] 102% | viability, T/C [21] 98.8% | viability, T/C [22] 81.8% | viability, T/C [23] 58.8% | viability, T/C [24] 28.5% | viability, T/C [25] 111% | viability, T/C [26] 106% | viability, T/C [27] 92.2% | viability, T/C [28] 88.1% | viability, T/C [29] 62.7% | viability, T/C [30] 31.6% | viability, T/C [31] 101% | viability, T/C [32] 98.6% | viability, T/C [33] 94% | viability, T/C [34] 82.3% | viability, T/C [35] 52.1% | viability, T/C [36] 31.8% | viability, T/C [37] 92.5% | viability, T/C [38] 76.1% | viability, T/C [39] 70.4% | viability, T/C [40] 58.4% | viability, T/C [41] 48.1% | viability, T/C [42] 34.1%
6.44 µM: IC50 [1]
3.65 µM: IC50 [5]
5.15 µM: IC50 [4]
4.3 µM: IC50 [3]
5.35 µM: IC50 [2]
